The values below come from ChEMBL document CHEMBL3045356, “Synthesis and biological evaluation of a novel class as antileishmanial agent” (Med Chem Res, 2012).

Each structure is given as a SMILES string. Activity calls are given as the source filed them. The calls are words filed in the database; no cut-off is given here.

The subject of data set [1] is Mus musculus. In words: Toxicity in Mus musculus Swiss albino (mouse) infected with promastigote stage of Leishmania major MHOM/IL/81/FEBNI assessed as vascular thrombosis at 20 umol administered 21 days post infection measured after 5 weeks. The conditions noted are these: in vivo, 840 h. The format is organism-based.
Data set [2] relates to Leishmania major. The data set can be described thus: Antileishmanial activity against promastigote stage of Leishmania major MHOM/IL/81/FEBNI infected Swiss albino mouse assessed as decrease in parasite number in cutaneous lesion at 20 umol administered 21 days post infection measured after 5 weeks by Giemsa staining. The format is functional, organism-based.
Data set [3] concerns Leishmania major. In words: Antileishmanial activity against promastigote stage of Leishmania major MHOM/IL/81/FEBNI assessed as parasite motility at 10 umol measured every 10 min for 1 hr by light microscopic analysis. The format is functional, organism-based.
The test system of data set [4] is Leishmania major. In words: Antileishmanial activity against promastigote stage of Leishmania major MHOM/IL/81/FEBNI assessed as cell viability at 10 umol measured every day for 5 days by light microscopic analysis. The format is functional, organism-based.
For data set [5], the system named is Leishmania major. In words: Antileishmanial activity against promastigote stage of Leishmania major MHOM/IL/81/FEBNI infected Swiss albino mouse assessed as decrease in cutaneous lesion progression at 20 umol administered 21 days post infection measured after 5 weeks relative to untreated mouse. The format is functional, organism-based.
Data set [6] concerns Mus musculus. The data set can be described thus: Toxicity in Mus musculus Swiss albino (mouse) infected with promastigote stage of Leishmania major MHOM/IL/81/FEBNI assessed as severe irritation of epidermis at 20 umol administered 21 days post infection measured after 5 weeks. The format is organism-based. The conditions noted are these: in vivo, 840 h.
In data set [7] the test system is Mus musculus. The data set can be described thus: Toxicity in Mus musculus Swiss albino (mouse) infected with promastigote stage of Leishmania major MHOM/IL/81/FEBNI assessed as deposition of haemosidrin in macrophages at 20 umol administered 21 days post infection measured after 5 weeks. The format is organism-based. As to conditions: in vivo, 840 h.
The test system of data set [8] is Leishmania major. The data set can be described thus: Antileishmanial activity against promastigote stage of Leishmania major MHOM/IL/81/FEBNI infected Swiss albino mouse assessed as inhibition of autoamputation of inoculated footpad at 20 umol administered 21 days post infection measured after 5 weeks relative to untreated mouse. The format is functional, organism-based.

The test system of data set [9] is Leishmania major. The data set can be described thus: Antileishmanial activity against promastigote stage of Leishmania major MHOM/IL/81/FEBNI infected Swiss albino mouse assessed as decrease in parasite-induced inflammatory reaction in cutaneous lesion at 20 umol administered 21 days post infection measured after 5 weeks by Giemsa staining. The format is functional, organism-based.

The test system of data set [10] is Leishmania major. In words: Antileishmanial activity against promastigote stage of Leishmania major MHOM/IL/81/FEBNI infected Swiss albino mouse assessed as decrease in swelling and redness of inoculated footpad at 20 umol administered 21 days post infection measured after 5 weeks. The format is functional, organism-based.
Data set [11] concerns Leishmania major. The data set can be described thus: Antileishmanial activity against promastigote stage of Leishmania major MHOM/IL/81/FEBNI infected Swiss albino mouse assessed as inhibition of gangrene in inoculated footpad at 20 umol administered 21 days post infection measured after 5 weeks relative to untreated mouse. The format is functional, organism-based.
Data set [12] concerns Leishmania major. The data set can be described thus: Antileishmanial activity against promastigote stage of Leishmania major MHOM/IL/81/FEBNI infected Swiss albino mouse assessed as inhibition of lesion development in inoculated footpad at 20 umol administered 21 days post infection measured after 5 weeks relative to untreated mouse. The format is functional, organism-based.

Consider `CC(=O)Nc1ccc(NC(=O)C2=C(C)NC(=O)NC2c2ccc(N(C)C)cc2)cc1` (stereo unspecified), for which the Activity entry in the data set on Mus musculus [1], in the data set with Mus musculus [6] and in the data set on Mus musculus [7] was “Toxic” each time. The outcome in the data set on Leishmania major [2] was inactive. In addition, the result with Leishmania major [3], in the data set on Leishmania major [4] and in the data set on Leishmania major [5] was Active. The “inhibition of footpad autoamputation (active/not active)” value (from here on “inhibition … (active/not active)”) in the data set on Leishmania major [8] was “Active”.

Regarding `CC1=C(C(=O)N(CCO)CCO)C(c2cccc([N+](=O)[O-])c2)NC(=S)N1` (stereo unspecified), the outcome in the data set with Leishmania major [2] was inactive. For the same compound, the result in the data set on Leishmania major [3], in the data set on Leishmania major [4] and with Leishmania major [5] was Active. In the data set with Leishmania major [8], the “inhibition … (active/not active)” value is “Active”.

Take `CC1=C(C(=O)NNC(=O)c2ccccc2O)C(c2ccc(N(C)C)cc2)NC(=S)N1` (stereo unspecified): the result in the data set with Leishmania major [2] was inactive. The result in the data set on Leishmania major [3], with Leishmania major [4] and in the data set on Leishmania major [5] was Active. Moreover, the “inhibition … (active/not active)” value in the data set with Leishmania major [8] is “Active”.

With `CC1=C(C(=O)NNC(=O)c2ccccc2O)C(c2cccc([N+](=O)[O-])c2)NC(=S)N1` (stereo unspecified), the result with Leishmania major [2], in the data set with Leishmania major [3], with Leishmania major [4], in the data set with Leishmania major [9] and with Leishmania major [10] was Active. In the data set with Mus musculus [6], the Activity result is on record as “Toxic”.

Take `CC1=C(C(=O)N(CCCl)CCCl)C(c2cccc([N+](=O)[O-])c2)NC(=S)N1` (stereo unspecified): the result in the data set on Leishmania major [2], in the data set with Leishmania major [3], in the data set with Leishmania major [4], in the data set with Leishmania major [9] and in the data set with Leishmania major [10] was Active. For the same compound, the Activity result in the data set on Mus musculus [6] is “Non-toxic”.

For the compound `C/C=C/C(=O)NNC(=O)C1=C(C)NC(=S)NC1c1cccc([N+](=O)[O-])c1` (stereo unspecified), the outcome in the data set on Leishmania major [2], in the data set on Leishmania major [3], in the data set on Leishmania major [4], in the data set on Leishmania major [9] and in the data set with Leishmania major [10] was Active. For the same compound, the Activity result in the data set on Mus musculus [6] was “Non-toxic”.

As to `COc1cc(C2NC(=S)NC(C)=C2C(=O)NNC(=O)c2ccccc2O)cc(OC)c1OC` (stereo unspecified), the result in the data set on Leishmania major [2] was inactive. Also, the result in the data set with Leishmania major [3], with Leishmania major [4] and in the data set with Leishmania major [5] was Active. Also, the inhibition entry in the data set with Leishmania major [11] and in the data set on Leishmania major [12] was “inactive” throughout. For the same compound, the “inhibition … (active/not active)” value with Leishmania major [8] is “inactive”.

Regarding `CC1=C(C(=O)NNC(=O)c2ccccc2O)C(c2cccc([N+](=O)[O-])c2)NC(=O)N1` (stereo unspecified), the result with Leishmania major [2], in the data set with Leishmania major [3], in the data set on Leishmania major [4], in the data set with Leishmania major [9] and in the data set with Leishmania major [10] was Active. Moreover, the Activity entry with Mus musculus [6] is given as “Toxic”.

As to `CC1=C(C(=O)NNC(=O)c2ccccc2O)C(c2ccc(N(C)C)cc2)NC(=O)N1` (stereo unspecified), in the data set with Leishmania major [2], the outcome was inactive. Also, the result with Leishmania major [3], in the data set on Leishmania major [4] and with Leishmania major [5] was Active. For the same compound, the inhibition entry in the data set with Leishmania major [11] and with Leishmania major [12] was “inactive” each time. For the same compound, the “inhibition … (active/not active)” value in the data set with Leishmania major [8] is “inactive”.
